Test systems include K-562 leukemia; KM12 colon; LOX IMVI melanoma; M14 melanoma; MDA-MB-231 breast; MOLT-4 leukemia; NCI-H522 lung; SK-MEL-5 melanoma; SK-OV-3 ovarian; SNB-19 CNS.
Common to all, as to test: NCI tumour cell line growth inhibition, 48 h

SMILES strings stand for the structures.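 Interpolation was linear, between the two tested concentrations surrounding the appropriate level; five concentrations were tested over 48 hours in 96-well plates. GI50 is the concentration that inhibits growth by half. At the TGI there is no net growth.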

With `Oc1ccc(-c2[nH]c3ccccc3c2-c2nc3ccccc3o2)cc1`, the GI50 with K-562 leukemia was 3.98 µM; with KM12 colon, 2.05 µM; with LOX IMVI melanoma, 1.9 µM; in the assay on M14 melanoma, 3.26 µM; in the assay on MDA-MB-231 breast, 1.47 µM; in the assay with MOLT-4 leukemia, 6.49 µM. In addition, the GI50 with NCI-H522 lung was 2.83 µM; with SK-MEL-5 melanoma it was 2.16 µM; in the assay with SK-OV-3 ovarian, 5.03 µM; in the assay with SNB-19 CNS, 6.77 µM. For the same molecule, the TGI was found to be 21.8 µM with K-562 leukemia; 6.95 µM in the assay on KM12 colon; 5.72 µM with LOX IMVI melanoma; 13.8 µM in the assay with M14 melanoma; 5.64 µM with MDA-MB-231 breast; 41.3 µM with MOLT-4 leukemia. The TGI with NCI-H522 lung stood at 9.65 µM; in the assay on SK-MEL-5 melanoma it was 7.8 µM; in the assay on SK-OV-3 ovarian it was 17.3 µM; with SNB-19 CNS it was 22.1 µM.

With `O=C(O)Cn1ccc(=O)c2c([N+](=O)[O-])cccc21`, the TGI with K-562 leukemia, in the assay on KM12 colon, with M14 melanoma, with MDA-MB-231 breast, with MOLT-4 leukemia and in the assay on NCI-H522 lung was over 100 µM each time. The TGI with SK-MEL-5 melanoma, in the assay with SK-OV-3 ovarian and in the assay with SNB-19 CNS was over 100 µM throughout.

Regarding `Cc1nn2c(-c3nc4cc(Cl)c(Cl)cc4[nH]3)c(-c3ccc(F)cc3)nc2s1`, the GI50 in the assay on K-562 leukemia is over 100 µM; with LOX IMVI melanoma, 2.79 µM; with M14 melanoma, 5.94 µM; in the assay with MDA-MB-231 breast, 1.25 µM; in the assay with MOLT-4 leukemia it was over 100 µM; with NCI-H522 lung, 6.35 µM. The results for the GI50 with SK-MEL-5 melanoma, in the assay on SK-OV-3 ovarian and in the assay with SNB-19 CNS were 5.86 µM, 1.98 µM and 5.18 µM, respectively. Moreover, the TGI with K-562 leukemia is over 100 µM; in the assay with LOX IMVI melanoma, over 100 µM; in the assay with M14 melanoma, over 100 µM; in the assay with MDA-MB-231 breast, 3.74 µM; in the assay with MOLT-4 leukemia, over 100 µM; in the assay on NCI-H522 lung it was 55.8 µM. For the same molecule, the TGI with SK-MEL-5 melanoma is over 100 µM; in the assay on SK-OV-3 ovarian, 4.46 µM; in the assay with SNB-19 CNS, over 76.8 µM.

Take `O=C(Nc1ccc(Br)cc1)Nc1cccc(Br)c1`: the GI50 was 9.96 µM in the assay with M14 melanoma; 30.5 µM with MDA-MB-231 breast; 5.38 µM in the assay with MOLT-4 leukemia; over 100 µM with SK-MEL-5 melanoma; 39.4 µM in the assay on SK-OV-3 ovarian; 11.1 µM in the assay with SNB-19 CNS. The TGI in the assay with M14 melanoma, in the assay with MDA-MB-231 breast, with MOLT-4 leukemia, in the assay on SK-MEL-5 melanoma, in the assay on SK-OV-3 ovarian and in the assay with SNB-19 CNS was over 100 µM in each case.

In the case of `CC1(C)OC2OC(COC(=O)C(c3ccccc3)c3ccccc3)C3OC(C)(C)OC3C2O1` (centres undefined), the TGI with K-562 leukemia, in the assay on KM12 colon, in the assay with LOX IMVI melanoma, with M14 melanoma, in the assay on MOLT-4 leukemia and in the assay with NCI-H522 lung was over 100 µM in each case. Besides, the TGI was 24.4 µM in the assay with SK-MEL-5 melanoma, over 100 µM in the assay with SK-OV-3 ovarian and over 100 µM with SNB-19 CNS. Also, the GI50 was 3.76 µM in the assay on MOLT-4 leukemia and over 100 µM in the assay on SK-OV-3 ovarian.

As to `O=C(/C=C/c1cccc(Oc2ccc(Cl)cc2)c1)c1ccccc1`, the GI50 with KM12 colon is 34.9 µM; in the assay with LOX IMVI melanoma, 16.9 µM; in the assay with M14 melanoma it was 53.1 µM; with MDA-MB-231 breast, 29.1 µM; in the assay with MOLT-4 leukemia, 30.8 µM; with NCI-H522 lung, 67.1 µM. Besides, the values for the GI50 in the assay with SK-MEL-5 melanoma, in the assay on SK-OV-3 ovarian and in the assay on SNB-19 CNS were 36 µM, 195 µM and 35.3 µM, respectively. Further, the TGI with KM12 colon was 125 µM; in the assay on LOX IMVI melanoma, 33 µM; with M14 melanoma, 241 µM; in the assay with MDA-MB-231 breast, 89 µM; in the assay with NCI-H522 lung, 246 µM; with SK-MEL-5 melanoma, 127 µM. Also, the TGI with SK-OV-3 ovarian was found to be 381 µM; with SNB-19 CNS, 111 µM.

Take `O=C(CN(/C=C/C(=O)C(F)(F)F)c1ccccc1)c1ccc(F)cc1`: the GI50 with K-562 leukemia was 18.1 µM; in the assay with KM12 colon, 24.9 µM; in the assay with LOX IMVI melanoma, 15.5 µM; with MDA-MB-231 breast, 17.7 µM; in the assay on MOLT-4 leukemia it was 23.6 µM; in the assay with NCI-H522 lung it was 19.2 µM. Also, the GI50 in the assay with SK-MEL-5 melanoma was 1.34 µM; in the assay on SK-OV-3 ovarian, 55 µM; in the assay with SNB-19 CNS it was 46 µM. In addition, the TGI in the assay with K-562 leukemia was determined as 52.6 µM; in the assay with KM12 colon, 69.9 µM; in the assay on LOX IMVI melanoma, 37.6 µM; in the assay with MDA-MB-231 breast, 42.1 µM; with MOLT-4 leukemia, 79.8 µM; in the assay on NCI-H522 lung it was 46.5 µM. For the same molecule, the TGI was 12.3 µM with SK-MEL-5 melanoma, over 100 µM with SK-OV-3 ovarian and over 100 µM in the assay on SNB-19 CNS.

For the molecule `COc1ncc2cc1NS(=O)(=O)c1cccc(c1)C(=O)NCC1=CC=C(S1)c1ncnc3c1SC2=C3C`, the GI50 was 0.596 µM with K-562 leukemia; 0.269 µM in the assay on KM12 colon; 0.0902 µM with LOX IMVI melanoma; 0.0992 µM with M14 melanoma; 0.139 µM in the assay on MDA-MB-231 breast; 0.467 µM in the assay with NCI-H522 lung. For the same molecule, the GI50 with SK-MEL-5 melanoma was 0.0369 µM; in the assay on SK-OV-3 ovarian, 0.378 µM. In addition, the TGI with K-562 leukemia is over 100 µM; with KM12 colon, 1.34 µM; with LOX IMVI melanoma it was 0.499 µM; in the assay on M14 melanoma it was 1.89 µM; in the assay with MDA-MB-231 breast it was 12.8 µM; with NCI-H522 lung, 2.61 µM. Further, the TGI in the assay on SK-MEL-5 melanoma turned out to be 0.151 µM; with SK-OV-3 ovarian it was 4.07 µM.

Take `c1ccc2c(c1)[O][Sn][O]2`: the GI50 was 91.6 µg/mL in the assay with K-562 leukemia; 21.8 µg/mL in the assay with KM12 colon; 27.8 µg/mL in the assay with LOX IMVI melanoma; 57.3 µg/mL in the assay on M14 melanoma; 7.16 µg/mL with MOLT-4 leukemia; 2.03 µg/mL with NCI-H522 lung. In addition, the GI50 in the assay with SK-MEL-5 melanoma is 20.7 µg/mL; with SK-OV-3 ovarian, over 150 µg/mL; in the assay with SNB-19 CNS, 61.5 µg/mL. In addition, the TGI with K-562 leukemia is over 150 µg/mL; in the assay on KM12 colon, over 150 µg/mL; with LOX IMVI melanoma, 112 µg/mL; in the assay with M14 melanoma, over 150 µg/mL; in the assay with MOLT-4 leukemia, over 150 µg/mL; with NCI-H522 lung, 8.78 µg/mL. Also, the TGI with SK-MEL-5 melanoma, in the assay with SK-OV-3 ovarian and in the assay on SNB-19 CNS was over 150 µg/mL throughout.
